From patent US9073918B2, “Pyrazolo[4,3-b]pyridine-7-amine inhibitors of ALK5” (Takeda Pharmaceutical Company Limited, priority 2010, dated 2015)

Experiments:
[1] = biological target: T1, TGF-β R1 ALK5 (Homo sapiens, UniProt P36897); test: In vitro inhibition of ALK5 (LanthaScreen activity assay, TR-FRET); format: biochemical
T1 construct: purchased Invitrogen PV5837
T1 sequence (P36897 34-503): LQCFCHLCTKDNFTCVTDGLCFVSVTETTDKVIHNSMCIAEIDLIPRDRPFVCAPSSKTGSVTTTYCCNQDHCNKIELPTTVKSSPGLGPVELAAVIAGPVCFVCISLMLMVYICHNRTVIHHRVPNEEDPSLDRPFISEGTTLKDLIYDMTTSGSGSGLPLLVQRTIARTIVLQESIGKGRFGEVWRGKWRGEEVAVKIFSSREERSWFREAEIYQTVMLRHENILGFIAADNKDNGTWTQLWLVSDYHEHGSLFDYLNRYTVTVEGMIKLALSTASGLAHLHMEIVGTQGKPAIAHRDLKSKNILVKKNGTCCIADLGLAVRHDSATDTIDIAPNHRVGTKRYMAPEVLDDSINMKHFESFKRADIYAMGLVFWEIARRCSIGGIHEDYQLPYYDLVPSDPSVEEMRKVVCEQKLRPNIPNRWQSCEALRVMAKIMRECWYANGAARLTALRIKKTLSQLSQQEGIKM

[2] = biological target: T2, cellular TGF-β R1 ALK5 (Homo sapiens, UniProt P36897); test: Cellular inhibition of ALK5 (CellSensor SBE-bla HEK 293T beta-lactamase reporter); format: cell-based; settings: cellular inhibition of ALK5, SBE-bla HEK 293T cells, TGFb-1 stimulated 5 hours; average where measured in multiple experiments
T2 construct: host or cells: CellSensor SBE-bla HEK 293T
T2 sequence (P36897 34-503): T1 sequence (P36897 34-503)
Outline: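 SBE-bla HEK 293T beta-lactamase reporter cells pre-incubated 1 h at 37 °C with 2.5-fold serially diluted compounds (0.5% DMSO), then stimulated 5 h with TGFb-1 (100 ng/mL stock).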

Structure (SMILES) | IC50 [1] | IC50 [2]
Cc1cnc(-c2cc(F)ccc2F)cc1Nc1ccnc2cn(CCC(C)(C)O)nc12 [Example 142, 4-(7-(2-(2,5-difluorophenyl)-5-methylpyridin-4-ylamino)-2H-pyrazolo[4,3-b]pyridin-2-yl)-2-methylbutan-2-ol] | 25.1 nM | 158 nM
CCNC(=O)N1CCC(Cn2cc3nccc(Nc4ccnc(-c5cc(Cl)ccc5F)c4)c3n2)CC1 [Example 28, 4-((7-(2-(5-chloro-2-fluorophenyl)pyridin-4-ylamino)-2H-pyrazolo[4,3-b]pyridin-2-yl)methyl)-N-ethylpiperidine-1-carboxamide] | 2510 nM | 2510 nM
Cc1ccc(F)c(-c2cc(Nc3ccnc4cnn(C)c34)ccn2)n1 [Example 65, N-(3′-fluoro-6′-methyl-2,2′-bipyridin-4-yl)-1-methyl-1H-pyrazolo[4,3-b]pyridin-7-amine] | 100 nM | 126 nM
Cc1ccc(F)c(-c2cc(Nc3c(F)cnc4cnn(C)c34)c(C)cn2)n1 [Example 132, 6-fluoro-N-(3′-fluoro-5,6′-dimethyl-2,2′-bipyridin-4-yl)-1-methyl-1H-pyrazolo[4,3-b]pyridin-7-amine] | 63.1 nM | 126 nM
Cc1ccc(F)c(-c2cc(Nc3ccnc4cnn(C[C@H](C)O)c34)c(C)cn2)n1 [Example 152, (S)-1-(7-(3′-fluoro-5,6′-dimethyl-2,2′-bipyridin-4-ylamino)-1H-pyrazolo[4,3-b]pyridin-1-yl)propan-2-ol] | 7.94 nM | 100 nM
CCNC(=O)n1ncc2nccc(Nc3nc(-c4cc(F)ccc4F)ncc3C)c21 [Example 97, 7-(2-(2,5-difluorophenyl)-5-methylpyrimidin-4-ylamino)-N-ethyl-1H-pyrazolo[4,3-b]pyridine-1-carboxamide] | 15.8 nM | 398 nM
Cc1ccc(F)c(-c2cc(Nc3ccnc4cn([C@H]5CCOC5)nc34)c(C)cn2)n1 [Example 140, (S)—N-(3′-fluoro-5,6′-dimethyl-2,2′-bipyridin-4-yl)-2-(tetrahydrofuran-3-yl)-2H-pyrazolo[4,3-b]pyridin-7-amine] | 7.94 nM | 50.1 nM
Cc1cnc(-c2cc(F)ccc2F)nc1Nc1ccnc2cn[nH]c12 [Example 96, N-(2-(2,5-difluorophenyl)-5-methylpyrimidin-4-yl)-1H-pyrazolo[4,3-b]pyridin-7-amine] | 20 nM | 63.1 nM
Cc1cnc(-c2cc(Cl)ccc2F)cc1Nc1ccnc2cn(CC(N)=O)nc12 [Example 50, 2-(7-(2-(5-chloro-2-fluorophenyl)-5-methylpyridin-4-ylamino)-2H-pyrazolo[4,3-b]pyridin-2-yl)acetamide] | 15.8 nM | 12.6 nM
Cc1ccc(F)c(-c2cc(Nc3ccnc4cn(CC(F)F)nc34)ccn2)n1 [Example 104, 2-(2,2-difluoroethyl)-N-(3′-fluoro-6′-methyl-2,2′-bipyridin-4-yl)-2H-pyrazolo[4,3-b]pyridin-7-amine] | 79.4 nM | 316 nM
Cc1ccc(F)c(-c2cc(Nc3ccnc4cnn(C[C@@H](C)O)c34)c(C)cn2)n1 [Example 151, (R)-1-(7-(3′-fluoro-5,6′-dimethyl-2,2′-bipyridin-4-ylamino)-1H-pyrazolo[4,3-b]pyridin-1-yl)propan-2-ol] | 6.31 nM | 63.1 nM
CNC(=O)n1ncc2nccc(Nc3ccnc(-c4cc(Cl)c(F)cc4F)c3)c21 [Example 63, 7-(2-(5-chloro-2,4-difluorophenyl)pyridin-4-ylamino)-N-methyl-1H-pyrazolo[4,3-b]pyridine-1-carboxamide] | 31.6 nM | 398 nM
Cc1ccc(F)c(-c2cc(Nc3c(F)cnc4cn(C[C@H](C)O)nc34)ccn2)n1 [Example 100A, (S)-1-(6-fluoro-7-(3′-fluoro-6′-methyl-2,2′-bipyridin-4-ylamino)-2H-pyrazolo[4,3-b]pyridin-2-yl)propan-2-ol] | 398 nM | 1260 nM
Cc1ccc(F)c(-c2cc(Nc3ccnc4cnn(CC(C)(C)O)c34)ccn2)n1 [Example 70, 1-(7-(3′-fluoro-6′-methyl-2,2′-bipyridin-4-ylamino)-1H-pyrazolo[4,3-b]pyridin-1-yl)-2-methylpropan-2-ol] | 15.8 nM | 31.6 nM
COCCCn1ncc2nccc(Nc3ccnc(-c4cc(Cl)ccc4F)c3)c21 [Example 33, N-(2-(5-chloro-2-fluorophenyl)pyridin-4-yl)-1-(3-methoxypropyl)-1H-pyrazolo[4,3-b]pyridin-7-amine] | 200 nM | 200 nM
CNC(=O)n1ncc2nccc(Nc3nc(-c4cc(Cl)ccc4F)ncc3C)c21 [Example 2, 7-(2-(5-chloro-2-fluorophenyl)-5-methylpyrimidin-4-ylamino)-N-methyl-1H-pyrazolo[4,3-b]pyridine-1-carboxamide] | 6.31 nM | 79.4 nM
Cc1cnc(-c2cc(Cl)ccc2F)cc1Nc1ccnc2cn(C)nc12 [Example 128, N-(2-(5-chloro-2-fluorophenyl)-5-methylpyridin-4-yl)-2-methyl-2H-pyrazolo[4,3-b]pyridin-7-amine] | 6.31 nM | 25.1 nM
Cc1ccc(F)c(-c2cc(Nc3ccnc4cn(C[C@@H](C)O)nc34)ccn2)n1 [Example 114, (R)-1-(7-(3′-fluoro-6′-methyl-2,2′-bipyridin-4-ylamino)-2H-pyrazolo[4,3-b]pyridin-2-yl)propan-2-ol] | 158 nM | 1260 nM
Cc1ccc(F)c(-c2cc(Nc3ccnc4cnn(CC(O)C(F)(F)F)c34)ccn2)n1 (stereo not drawn) [Example 113, 1,1,1-trifluoro-3-(7-(3′-fluoro-6′-methyl-2,2′-bipyridin-4-ylamino)-1H-pyrazolo[4,3-b]pyridin-1-yl)propan-2-ol] | 50.1 nM | 1580 nM
Cc1cc(Nc2ccnc3cnn(CC(N)=O)c23)cc(-c2cc(Cl)ccc2F)n1 [Example 60A, 2-(7-(2-(5-chloro-2-fluorophenyl)-6-methylpyridin-4-ylamino)-1H-pyrazolo[4,3-b]pyridin-1-yl)acetamide] | 31.6 nM | 501 nM
CCNC(=O)n1ncc2nccc(Nc3ccnc(-c4cc(F)ccc4F)c3)c21 [Example 93, 7-(2-(2,5-difluorophenyl)pyridin-4-ylamino)-N-ethyl-1H-pyrazolo[4,3-b]pyridine-1-carboxamide] | 5.01 nM | 25.1 nM
Fc1ccc(Cl)cc1-c1cc(Nc2ccnc3cn(CC4CCNCC4)nc23)ccn1 [Example 27, N-(2-(5-chloro-2-fluorophenyl)pyridin-4-yl)-2-(piperidin-4-ylmethyl)-2H-pyrazolo[4,3-b]pyridin-7-amine] | 63.1 nM | 1000 nM
CNC(=O)n1ncc2nccc(Nc3cc(-c4cc(Cl)ccc4F)ncc3C)c21 [Example 52, 7-(2-(5-chloro-2-fluorophenyl)-5-methylpyridin-4-ylamino)-N-methyl-1H-pyrazolo[4,3-b]pyridine-1-carboxamide] | 31.6 nM | 31.6 nM
COCCn1cc2ncc(F)c(Nc3cc(-c4cc(Cl)ccc4F)ncc3C)c2n1 [Example 16, N-(2-(5-chloro-2-fluorophenyl)-5-methylpyridin-4-yl)-6-fluoro-2-(2-methoxyethyl)-2H-pyrazolo[4,3-b]pyridin-7-amine] | 31.6 nM | 501 nM
CNC(=O)Cn1ncc2nccc(Nc3ccnc(-c4cc(Cl)ccc4F)c3)c21 [Example 31, 2-(7-(2-(5-chloro-2-fluorophenyl)pyridin-4-ylamino)-1H-pyrazolo[4,3-b]pyridin-1-yl)-N-methylacetamide] | 200 nM | 200 nM
Cc1ccc(F)c(-c2cc(Nc3ccnc4cnn([C@@H]5CCOC5)c34)c(C)cn2)n1 [Example 137, (R)—N-(3′-fluoro-5,6′-dimethyl-2,2′-bipyridin-4-yl)-1-(tetrahydrofuran-3-yl)-1H-pyrazolo[4,3-b]pyridin-7-amine] | 20 nM | 79.4 nM
Cc1ccc(F)c(-c2cc(Nc3ccnc4cnn(CCF)c34)ccn2)n1 [Example 101, N-(3′-fluoro-6′-methyl-2,2′-bipyridin-4-yl)-1-(2-fluoroethyl)-1H-pyrazolo[4,3-b]pyridin-7-amine] | 25.1 nM | 100 nM
Cc1ccc(F)c(-c2cc(Nc3c(F)cnc4cn(CC(N)=O)nc34)c(C)cn2)n1 [Example 88, 2-(6-fluoro-7-(3′-fluoro-5,6′-dimethyl-2,2′-bipyridin-4-ylamino)-2H-pyrazolo[4,3-b]pyridin-2-yl)acetamide] | 10 nM | 158 nM
CCn1cc2nccc(Nc3cc(-c4nc(C)ccc4F)ncc3C)c2n1 [Example 126, 2-ethyl-N-(3′-fluoro-5,6′-dimethyl-2,2′-bipyridin-4-yl)-2H-pyrazolo[4,3-b]pyridin-7-amine] | 10 nM | 15.8 nM
Cc1ccc(F)c(-c2cc(Nc3ccnc4cnn(CCF)c34)c(C)cn2)n1 [Example 130, N-(3′-fluoro-5,6′-dimethyl-2,2′-bipyridin-4-yl)-1-(2-fluoroethyl)-1H-pyrazolo[4,3-b]pyridin-7-amine] | 3.98 nM | 20 nM
